Results as given in ChEMBL document CHEMBL4316596, “Antimicrobial Peptides with High Proteolytic Resistance for Combating Gram-Negative Bacteria” (J Med Chem, 2019).
In brackets after ≈: the same amount, converted by molar mass.

Tests used:
[1] = system: Escherichia coli; experiment: Bactericidal activity against Escherichia coli UB1005 incubated for 4 hrs followed by culture spread on agar plates and cultured overnight; type: functional; conditions: UB1005, 4 h, read-out: MBC>99.9
[2] = system: Klebsiella pneumoniae; experiment: Bactericidal activity against Klebsiella pneumoniae incubated for 4 hrs followed by culture spread on agar plates and cultured overnight; type: functional; conditions: read-out: MBC>99.9
[3] = system: Escherichia coli; experiment: Antimicrobial activity against Escherichia coli K88 after 24 hrs by NCCLS-protocol based assay; type: functional; conditions: K88, 24 h
[4] = system: Acinetobacter baumannii; experiment: Antimicrobial activity against Acinetobacter baumannii after 24 hrs by NCCLS-protocol based assay; type: functional
[5] = system: Pseudomonas aeruginosa; experiment: Antimicrobial activity against Pseudomonas aeruginosa 26305 clinical isolates after 24 hrs by NCCLS-protocol based assay; type: functional; conditions: Pseudomonas aeruginosa, 26305, 24 h
[6] = system: Pseudomonas aeruginosa; experiment: Antimicrobial activity against Pseudomonas aeruginosa CICC 21630 clinical isolates after 24 hrs by NCCLS-protocol based assay; type: functional; conditions: CICC 21630, 24 h
[7] = system: Acinetobacter baumannii; experiment: Bactericidal activity against Acinetobacter baumannii incubated for 4 hrs followed by culture spread on agar plates and cultured overnight; type: functional; conditions: read-out: MBC>99.9
[8] = system: Escherichia coli; experiment: Bactericidal activity against Escherichia coli K99 incubated for 4 hrs followed by culture spread on agar plates and cultured overnight; type: functional; conditions: K99, 4 h, read-out: MBC>99.9
[9] = system: Pseudomonas aeruginosa; experiment: Antimicrobial activity against Pseudomonas aeruginosa CICC 21625 clinical isolates after 24 hrs by NCCLS-protocol based assay; type: functional; conditions: CICC 21625, 24 h
[10] = system: Pseudomonas aeruginosa; experiment: Bactericidal activity against Pseudomonas aeruginosa CICC 21625 clinical isolates incubated for 4 hrs followed by culture spread on agar plates and cultured overnight; type: functional; conditions: CICC 21625, 4 h, read-out: MBC>99.9
[11] = system: Escherichia coli; experiment: Bactericidal activity against Escherichia coli 078 incubated for 4 hrs followed by culture spread on agar plates and cultured overnight; type: functional; conditions: Escherichia coli, 078, 4 h; read-out: MBC>99.9
[12] = system: Pseudomonas aeruginosa; experiment: Antimicrobial activity against Pseudomonas aeruginosa PAO1 after 24 hrs by NCCLS-protocol based assay; type: functional; conditions: PAO1, 24 h
[13] = system: Pseudomonas aeruginosa; experiment: Bactericidal activity against Pseudomonas aeruginosa ATCC 27853 incubated for 4 hrs followed by culture spread on agar plates and cultured overnight; type: functional; conditions: ATCC 27853, 4 h, read-out: MBC>99.9
[14] = system: Salmonella typhimurium; experiment: Bactericidal activity against Salmonella typhimurium ATCC 14028 incubated for 4 hrs followed by culture spread on agar plates and cultured overnight; type: functional, Salmonella enterica subsp. enterica serovar Typhimurium; conditions: Salmonella enterica, ATCC 14028, 4 h; read-out: MBC>99.9
[15] = system: Escherichia coli; experiment: Antimicrobial activity against Escherichia coli UB1005 after 24 hrs by NCCLS-protocol based assay; type: functional; conditions: UB1005, 24 h
[16] = system: Pseudomonas aeruginosa; experiment: Bactericidal activity against Pseudomonas aeruginosa 25349 clinical isolates incubated for 4 hrs followed by culture spread on agar plates and cultured overnight; type: functional; conditions: Pseudomonas aeruginosa, 25349, 4 h; read-out: MBC>99.9
[17] = system: Escherichia coli; experiment: Bactericidal activity against Escherichia coli ATCC 25922 incubated for 4 hrs followed by culture spread on agar plates and cultured overnight; type: functional; conditions: ATCC 25922, 4 h, read-out: MBC>99.9
[18] = system: Escherichia coli; experiment: Bactericidal activity against Escherichia coli K88 incubated for 4 hrs followed by culture spread on agar plates and cultured overnight; type: functional; conditions: K88, 4 h, read-out: MBC>99.9
[19] = system: Escherichia coli; experiment: Antimicrobial activity against Escherichia coli K99 after 24 hrs by NCCLS-protocol based assay; type: functional; conditions: K99, 24 h
[20] = system: Escherichia coli; experiment: Antimicrobial activity against Escherichia coli 078 after 24 hrs by NCCLS-protocol based assay; type: functional; conditions: Escherichia coli, 078, 24 h
[21] = system: Escherichia coli; experiment: Antimicrobial activity against Escherichia coli ATCC 25922 after 24 hrs by NCCLS-protocol based assay; type: functional; conditions: ATCC 25922, 24 h
[22] = system: Pseudomonas aeruginosa; experiment: Bactericidal activity against Pseudomonas aeruginosa CICC 21630 clinical isolates incubated for 4 hrs followed by culture spread on agar plates and cultured overnight; type: functional; conditions: CICC 21630, 4 h, read-out: MBC>99.9
[23] = system: Salmonella typhimurium; experiment: Bactericidal activity against Salmonella typhimurium C7731 incubated for 4 hrs followed by culture spread on agar plates and cultured overnight; type: functional, Salmonella enterica subsp. enterica serovar Typhimurium; conditions: Salmonella enterica, C7731, 4 h; read-out: MBC>99.9
[24] = system: Pseudomonas aeruginosa; experiment: Bactericidal activity against Pseudomonas aeruginosa 26305 clinical isolates incubated for 4 hrs followed by culture spread on agar plates and cultured overnight; type: functional; conditions: Pseudomonas aeruginosa, 26305, 4 h; read-out: MBC>99.9
[25] = system: Pseudomonas aeruginosa; experiment: Antimicrobial activity against Pseudomonas aeruginosa 25349 clinical isolates after 24 hrs by NCCLS-protocol based assay; type: functional; conditions: Pseudomonas aeruginosa, 25349, 24 h
[26] = system: Pseudomonas aeruginosa; experiment: Bactericidal activity against Pseudomonas aeruginosa PAO1 incubated for 4 hrs followed by culture spread on agar plates and cultured overnight; type: functional; conditions: PAO1, 4 h, read-out: MBC>99.9
[27] = Antimicrobial activity against Salmonella pullorum C7913 after 24 hrs by NCCLS-protocol based assay; type: functional, Salmonella enterica subsp. enterica serovar Pullorum; conditions: Salmonella enterica, C7913, 24 h
[28] = system: Klebsiella pneumoniae; experiment: Antimicrobial activity against Klebsiella pneumoniae after 24 hrs by NCCLS-protocol based assay; type: functional
[29] = system: Salmonella typhimurium; experiment: Antimicrobial activity against Salmonella typhimurium ATCC 14028 after 24 hrs by NCCLS-protocol based assay; type: functional, Salmonella enterica subsp. enterica serovar Typhimurium; conditions: Salmonella enterica, ATCC 14028, 24 h
[30] = Bactericidal activity against Salmonella pullorum C7913 incubated for 4 hrs followed by culture spread on agar plates and cultured overnight; type: functional, Salmonella enterica subsp. enterica serovar Pullorum; conditions: Salmonella enterica, C7913, 4 h; read-out: MBC>99.9
[31] = system: Pseudomonas aeruginosa; experiment: Antimicrobial activity against Pseudomonas aeruginosa ATCC 27853 after 24 hrs by NCCLS-protocol based assay; type: functional; conditions: ATCC 27853, 24 h
[32] = system: Salmonella typhimurium; experiment: Antimicrobial activity against Salmonella typhimurium C7731 after 24 hrs by NCCLS-protocol based assay; type: functional, Salmonella enterica subsp. enterica serovar Typhimurium; conditions: Salmonella enterica, C7731, 24 h

Molecule	MBC [1] [µM]	MBC [2] [µM]	MIC95 [3] [µM]	MIC95 [4] [µM]	MIC95 [5] [µM]	MIC95 [6] [µM]	MBC [7] [µM]	MBC [8] [µM]	MIC95 [9] [µM]	MBC [10] [µM]	MBC [11] [µM]	MIC95 [12] [µM]	MBC [13] [µM]	MBC [14] [µM]	MIC95 [15] [µM]	MBC [16] [µM]	MBC [17] [µM]	MBC [18] [µM]	MIC95 [19] [µM]	MIC95 [20] [µM]	also measured
H-IKPIIKPIIKPIIKPIIKPIIKPIIKPIIKPI-NH2	4	> 64	1	4	> 64	> 64	4	4	> 64	> 64	> 64	> 64	> 64	> 64	4	> 64	16	2	2	32	MIC95 [21]: 16 µM; MBC [22]: > 64 µM; MBC [23]: > 64 µM; MBC [24]: > 64 µM; MIC95 [25]: > 64 µM; MBC [26]: > 64 µM; MIC95 [27]: > 64 µM; MIC95 [28]: 64 µM; MIC95 [29]: > 64 µM; MBC [30]: > 64 µM; MIC95 [31]: > 64 µM; MIC95 [32]: > 64 µM
H-VKPVVKPVVKPVVKPVVKPVVKPV-NH2	> 64	> 64	> 64	> 64	> 64	> 64	> 64	> 64	> 64	> 64	> 64	> 64	> 64	> 64	> 64	> 64	> 64	> 64	> 64	> 64	MIC95 [21]: > 64 µM; MBC [22]: > 64 µM; MBC [23]: > 64 µM; MBC [24]: > 64 µM; MIC95 [25]: > 64 µM; MBC [26]: > 64 µM; MIC95 [27]: > 64 µM; MIC95 [28]: > 64 µM; MIC95 [29]: > 64 µM; MBC [30]: > 64 µM; MIC95 [31]: > 64 µM; MIC95 [32]: > 64 µM
H-IRPIIRPIIRPIIRPIIRPIIRPIIRPIIRPI-NH2	2	8	2	2	> 64	> 64	4	2	> 64	> 64	2	4	8	16	2	> 64	2	2	1	2	MIC95 [21]: 2 µM; MBC [22]: > 64 µM; MBC [23]: > 64 µM; MBC [24]: > 64 µM; MIC95 [25]: > 64 µM; MBC [26]: 4 µM; MIC95 [27]: 4 µM; MIC95 [28]: 4 µM; MIC95 [29]: 8 µM; MBC [30]: 4 µM; MIC95 [31]: 8 µM; MIC95 [32]: 64 µM
H-LKPLLKPLLKPLLKPLLKPLLKPLLKPLLKPL-NH2	4	2	1	1	4	4	1	2	4	16	2	1	2	4	2	16	1	1	1	2	MIC95 [21]: 1 µM; MBC [22]: 8 µM; MBC [23]: 4 µM; MBC [24]: 8 µM; MIC95 [25]: 4 µM; MBC [26]: 2 µM; MIC95 [27]: 2 µM; MIC95 [28]: 1 µM; MIC95 [29]: 2 µM; MBC [30]: 4 µM; MIC95 [31]: 2 µM; MIC95 [32]: 4 µM
CN[C@H](CC(C)C)C(=O)N[C@H]1C(=O)N[C@@H](CC(N)=O)C(=O)N[C@H]2C(=O)N[C@H]3C(=O)N[C@H](C(=O)N[C@H](C(=O)O)c4cc(O)cc(O)c4-c4cc3ccc4O)[C@H](O)c3ccc(c(Cl)c3)Oc3cc2cc(c3O[C@@H]2O[C@H](CO)[C@@H](O)[C@H](O)[C@H]2O[C@H]2C[C@](C)(N)[C@H](O)[C@H](C)O2)Oc2ccc(cc2Cl)[C@H]1O [VANCOMYCIN]	16 (≈ 23.2 µg/mL)	32 (≈ 46.4 µg/mL)	2 (≈ 2.9 µg/mL)	2 (≈ 2.9 µg/mL)	64 (≈ 92.8 µg/mL)	32 (≈ 46.4 µg/mL)	2 (≈ 2.9 µg/mL)	4 (≈ 5.8 µg/mL)	64 (≈ 92.8 µg/mL)	> 64	4 (≈ 5.8 µg/mL)	8 (≈ 11.6 µg/mL)	> 64	8 (≈ 11.6 µg/mL)	16 (≈ 23.2 µg/mL)	> 64	16 (≈ 23.2 µg/mL)	4 (≈ 5.8 µg/mL)	4 (≈ 5.8 µg/mL)	4 (≈ 5.8 µg/mL)	MIC95 [21]: 8 µM (≈ 11.6 µg/mL); MBC [22]: 64 µM (≈ 92.8 µg/mL); MBC [23]: 16 µM (≈ 23.2 µg/mL); MBC [24]: > 64 µM; MIC95 [25]: 64 µM (≈ 92.8 µg/mL); MBC [26]: 16 µM (≈ 23.2 µg/mL); MIC95 [27]: 8 µM (≈ 11.6 µg/mL); MIC95 [28]: 16 µM (≈ 23.2 µg/mL); MIC95 [29]: 8 µM (≈ 11.6 µg/mL); MBC [30]: 8 µM (≈ 11.6 µg/mL); MIC95 [31]: > 64 µM; MIC95 [32]: 8 µM (≈ 11.6 µg/mL)
